Tests used:
[1] = Allometric PK scaling, prediction of CLint in humans; conditions: cross-species allometric scaling, BW 70 kg
Method: One of the typical approaches for predicting human PK from animal PK is empirical allometric scaling. As the CLtot of lenvatinib was relatively low and Vdss of lenvatinib was low to medium, thus it is theoretically preferable to correct by fp for both parameters. The CLtot divided by fp (CLtot/fp) or Vdss divided by fp (Vdss/fp) were plotted against body weight (BW) by log–log scale, and a linear regression was performed to estimate a slope and intercept for linear regression. The BW used in the calculation was 0.02, 0.2, 10, 5, and 70 kg for mice, rats, dogs, monkeys, and humans, respectively. CLtot and Vdss of lenvatinib in humans were predicted by using the regression line and the BW of humans. As no PK data of lenvatinib are available for CLtot and Vdss, which can be estimated only from intravenous administration PK study in humans, it is not possible to assess predictability of the allometric scaling for these two parameters of lenvatinib in humans. However, it is possible to predict exposure of lenvatinib after oral administration (AUCoral) in humans from the allometry scaling of hepatic intrinsic clearance (CLint). […]

[2] = Stability of lenvatinib in mice plasma and processed samples; assay type: physicochemical; conditions: for Frozen stability, mean percentage bias from the theoretical values: below − 15 °C, 4 weeks
Method: Calibration samples and QC samples for the reproducibility assessment were prepared by spiking 0.05 mL of the working standard solutions to blank plasma (0.05 mL), and QC samples for the stability assessment were prepared by fortifying 0.05 mL of the solution to 1.5 mL of bank plasma. Lenvatinib concentrations in plasma were 0.005, 0.01, 0.03, 0.1, 0.3, 1, 3, 10, 30, and 100 μg/mL for the calibration samples, and were 0.005, 0.01, 1, and 100 μg/mL for the QC samples for reproducibility assessment. Lenvatinib concentrations of QC samples for the stability assessment were 0.01, 1, and 80 μg/mL.
The developed method for the determination of lenvatinib concentrations in plasma was validated and the following validation parameters including linearity, selectivity, intra- and inter-batch reproducibility, extraction recovery, and stability were evaluated in accordance with the bioanalytical guidelines by United States Food and Drug Administration (US-FDA)[7]. The peak height ratios of lenvatinib to the IS of calibration samples were plotted against the corresponding nominal concentrations of lenvatinib. The calibration curve was prepared by the least square method with 1/(concentration)^2 as the weighting factor. In the linearity assessment, accuracy of each calibration sample was determined to ensure that relative error (RE) at each concentration was within ± 15% (within ± 20% at the LLOQ). […] Intra-batch accuracy and precision were evaluated using QC samples at the four concentrations, LLOQ, low QC (LQC), mid QC (MQC), and ULOQ. […] Inter-batch accuracy and precision were evaluated by testing a single sample at each concentration across five batches (n = 5 in total). […] Extraction recoveries of lenvatinib and the IS from plasma samples of the four species were evaluated. The recoveries of lenvatinib at the low, mid, and high QC levels (triplicates per concentration), and that of the IS (0.5 μg/mL) were determined. […] Stability of lenvatinib in plasma and processed samples was assessed at the low and high QC levels. Lenvatinib concentrations in samples after storage were compared to the theoretical concentrations and RE values were calculated. […] Freeze–thaw stability in plasma was evaluated up to three freeze–thaw cycles and frozen stability in plasma was evaluated at − 15 °C or below for 4 weeks (mice, rats, and dogs) or 6 weeks (monkeys). Stability in processed samples was assessed at 4 °C for 7 days. Stability of lenvatinib in the standard solutions was evaluated for the stock (100 μg/mL) and the working solution (5 ng/mL). The stability of the IS solution (0.5 μg/mL) was also assessed. […]

## COc1cc2nccc(Oc3ccc(NC(=O)NC4CC4)c(Cl)c3)c2cc1C(N)=O [lenvatinib, Lenvatinib]
[1]
  CLint predicted in humans: 78.4 mL/min/kg
[2]; mice plasma, 3 cycles, HQC 80 μg/mL
  Freeze/thaw stability, mean percentage bias from the theoretical values: 0.8%
[2]; mice plasma, LQC 0.01 μg/mL
  Frozen stability, mean percentage bias from the theoretical values: 0.0%
[2]; mice plasma, MQC 1 μg/mL
  Frozen stability, mean percentage bias from the theoretical values: 1.0%
[2]; processed mice plasma samples, 4 °C, 7 days, HQC 80 μg/mL
  Processed sample stability, mean percentage bias from the theoretical values: 0.3%
